Experimental data taken from publication PMC9669016, “First-in-human phase Ia study of the PI3Kα inhibitor CYH33 in patients with solid tumors” (Nature Communications, 2022).

Tested on: patients with advanced solid tumors
Test: Phase Ia safety, tolerability, DLT/MTD (TRAEs graded by NCI-CTCAE v4.03)
Format: in vivo
Excerpt: This is a phase I clinical study (ClinicalTrials.gov identifier: NCT03544905), including a phase Ia study of oral CYH33 monotherapy in patients with advanced solid tumors, and a phase Ib study of oral CYH33 monotherapy focused on several specific tumors. […] The phase Ia study included dose-escalation stage and dose-expansion stage. […] The secondary outcomes also included evaluation of changes in PD biomarkers in response to CYH33 treatment (including proteomics of blood specimens at baseline and during treatment, immunocyte subpopulation ratios and molecular markers, cell free DNA in peripheral blood, and blood glucose). However, in compliance with the local human genetic resource regulations and procedures, peripheral blood samples were not obtained for PD biomarker analysis, therefore, only fasting blood glucose was obtained and used as a PD biomarker for CYH33 treatment. The exploratory objective was the relationship between the efficacy of CYH33 treatment and tumor biomarker status.
An accelerated titration design (ATD) and an mTPI-2 design were adopted to guide toxicity monitoring and dose escalation. The target DLT rate was 30%, with the acceptable toxicity probability interval of (0.25, 0.35). For the first two preset doses of 1 mg and 5 mg CYH33 in the ATD phase, if there were no grade ≥2 TRAEs during the DLT observation period, 100% dose escalation was allowed in the subsequent dose group. After entering the mTPI-2 phase, the SMC guidance was followed to determine the dose level, dosing frequency, and number of subjects in the next dose group, based on the previously obtained safety and PK data for that dose group. If necessary, it was permitted to add an additional dose level between two explored dose levels for further investigation.
During the phase Ia study, the safe and probably effective dose will be delivered to the expansion cohort to further investigate the safety, tolerability and efficacy of this dose level, while the dose escalation study can be continued simultaneously. If necessary, it is permitted to insert a new dose level between two explored dose levels for exploration. The subjects to be enrolled in the expansion cohort are patients with advanced solid tumors with PIK3CA gene mutations. When there are two or more dose groups at dose expansion simultaneously, the allocation ratio of the number of subjects in each dose group should be as close as possible to the ratio of ORR in each dose group. In principle, when the cumulative ORR at a certain dose level is <10%, the number of subjects in this dose group will be determined by the SMC. A total of approximately 60 patients are expected to be enrolled in the whole phase Ia study.
The secondary endpoints included preliminary efficacy assessments based on ORR, PFS, DoR, DCR, and clinical benefit rate, assessed per RECIST 1.1,PK parameters for CYH33 and its metabolite I27, and changes in PD biomarkers in response to CYH33 treatment.

[1] = all patients 1–60 mg QD, n = 51

COC(=O)Nc1cc(C(F)(F)F)c(-c2nc(N3CCOCC3)c3cc(CN4CCN(S(C)(=O)=O)CC4)cn3n2)cn1 [CYH33, methyl (5-(6-((4-(methylsulfonyl)piperazin-1-yl)methyl)−4-morpholinopyrrolo[2,1-f][1,2,4]triazin-2-yl)−4-(trifluoromethyl)pyridin-2-yl)carbamate]
Generalized oedema, Grade ≥ 3 TRAE (1–20 mg QD, n = 10): 0 n (%) | Grade ≥ 3 TRAEs in all patients (1–20 mg QD, n = 10): 2 (20.0) n (%) | Hyperglycemia, Grade ≥ 3 TRAE (1–20 mg QD, n = 10): 2 (20.0) n (%) | Hyperglycemia, all-grade TRAE (1–20 mg QD, n = 10): 7 (70.0) n (%) | Hyponatremia, all-grade TRAE (1–20 mg QD, n = 10): 0 n (%) | Mouth ulceration, Grade ≥ 3 TRAE (1–20 mg QD, n = 10): 0 n (%) | Mouth ulceration, all-grade TRAE (1–20 mg QD, n = 10): 1 (10.0) n (%) | Nausea, Grade ≥ 3 TRAE (1–20 mg QD, n = 10): 0 n (%) | Nausea, all-grade TRAE (1–20 mg QD, n = 10): 3 (30.0) n (%) | Peripheral edema, Grade ≥ 3 TRAE (1–20 mg QD, n = 10): 0 n (%) | Peripheral edema, all-grade TRAE (1–20 mg QD, n = 10): 1 (10.0) n (%) | Rash, Grade ≥ 3 TRAE (1–20 mg QD, n = 10): 0 n (%) | Rash, all-grade TRAE (1–20 mg QD, n = 10): 1 (10.0) n (%) | TRAEs leading to death (1–20 mg QD, n = 10): 0 n (%) | TRAEs leading to dose discontinuation (1–20 mg QD, n = 10): 0 n (%) | TRAEs leading to dose interruption (1–20 mg QD, n = 10): 2 (20.0) n (%) | TRAEs leading to dose reduction (1–20 mg QD, n = 10): 1 (10.0) n (%) | TRAEs occurring in ≥ 10% of patients (1–20 mg QD, n = 10): 7 (70.0) n (%) | Treatment-related serious adverse events (1–20 mg QD, n = 10): 0 n (%) | Vomiting, all-grade TRAE (1–20 mg QD, n = 10): 3 (30.0) n (%) | Weight loss, all-grade TRAE (1–20 mg QD, n = 10): 1 (10.0) n (%) | White blood cell count decreased, Grade ≥ 3 TRAE (1–20 mg QD, n = 10): 0 n (%) | recommended phase 2 dose (RP2D) (QD): 40 mg | Blood glucose increased, Grade ≥ 3 TRAE [1]: 1 (2.0) n (%) | Decreased appetite, Grade ≥ 3 TRAE [1]: 1 (2.0) n (%) | Decreased appetite, all-grade TRAE [1]: 21 (41.2) n (%) | Diabetic ketosis, Grade ≥ 3 TRAE [1]: 1 (2.0) n (%) | Diarrhea, Grade ≥ 3 TRAE [1]: 2 (3.9) n (%) | Diarrhea, all-grade TRAE [1]: 15 (29.4) n (%) | Dizziness, Grade ≥ 3 TRAE [1]: 1 (2.0) n (%) | Electrocardiogram QT prolonged, Grade ≥ 3 TRAE [1]: 1 (2.0) n (%) | Face oedema, Grade ≥ 3 TRAE [1]: 1 (2.0) n (%) | Facial edema, all-grade TRAE [1]: 8 (15.7) n (%) | Fatigue, Grade ≥ 3 TRAE [1]: 1 (2.0) n (%) | Fatigue, all-grade TRAE [1]: 9 (17.6) n (%) | Generalized oedema, Grade ≥ 3 TRAE [1]: 1 (2.0) n (%) | Grade ≥ 3 TRAEs in all patients [1]: 33 (64.7) n (%) | Hyperglycemia, Grade ≥ 3 TRAE [1]: 30 (58.8) n (%) | Hyperglycemia, all-grade TRAE [1]: 46 (90.2) n (%) | Hyponatremia, all-grade TRAE [1]: 6 (11.8) n (%) | Mouth ulceration, Grade ≥ 3 TRAE [1]: 1 (2.0) n (%) | Mouth ulceration, all-grade TRAE [1]: 6 (11.8) n (%) | Nausea, Grade ≥ 3 TRAE [1]: 1 (2.0) n (%) | Nausea, all-grade TRAE [1]: 19 (37.3) n (%) | Peripheral edema, Grade ≥ 3 TRAE [1]: 4 (7.8) n (%) | Peripheral edema, all-grade TRAE [1]: 13 (25.5) n (%) | Rash, Grade ≥ 3 TRAE [1]: 1 (2.0) n (%) | Rash, all-grade TRAE [1]: 9 (17.6) n (%) | TRAEs leading to death [1]: 0 n (%) | TRAEs leading to dose discontinuation [1]: 4 (7.8) n (%) | TRAEs leading to dose interruption [1]: 36 (70.6) n (%) | TRAEs leading to dose reduction [1]: 6 (11.8) n (%) | TRAEs occurring in ≥ 10% of patients [1]: 47 (92.2) n (%) | Treatment-related serious adverse events [1]: 6 (11.8) n (%) | Vomiting, all-grade TRAE [1]: 13 (25.5) n (%) | Weight loss, all-grade TRAE [1]: 16 (31.4) n (%) | White blood cell count decreased, Grade ≥ 3 TRAE [1]: 1 (2.0) n (%) | serious AEs nausea, vomiting, abdominal pain, dyspnea, hyperglycemia, pyrexia (each) (all patients, n = 1 each): 2.0% | dose reduction due to peripheral edema, weight loss, mouth ulceration, prolonged electrocardiogram QT (each) (all patients, n = 1 for each): 2.0% | dose reduction due to fatigue (all patients, n = 2): 4.0% | hyperglycemia leading to dose interruption (all patients, n = 32 of 51): 62.7% | patients with dose interruptions due to TRAEs (all patients, n = 36 of 51): 70.6% | Decreased appetite, all-grade TRAE (all patients, n = 51): 41.2% | Diarrhea, all-grade TRAE (all patients, n = 51): 29.4% | Facial edema, all-grade TRAE (all patients, n = 51): 15.7% | Fatigue, all-grade TRAE (all patients, n = 51): 17.6% | Hyperglycemia, Grade ≥ 3 TRAE (all patients, n = 51): 58.8% | Hyperglycemia, TRAE at any grade (all patients, n = 51): 90.2% | Hyponatremia, all-grade TRAE (all patients, n = 51): 11.8% | Mouth ulceration, all-grade TRAE (all patients, n = 51): 11.8% | Nausea, all-grade TRAE (all patients, n = 51): 37.3% | Peripheral edema, all-grade TRAE (all patients, n = 51): 25.5% | Rash, all-grade TRAE (all patients, n = 51): 17.6% | Vomiting, all-grade TRAE (all patients, n = 51): 25.5% | Weight loss, all-grade TRAE (all patients, n = 51): 31.4% | incidences of all other grade ≥3 TRAEs (all patients, n = 51): < 5% | treatment-related deaths (all patients, n = 51): No treatment-related deaths | Peripheral edema, grade 3 TRAE (all patients, n = 51 (four patients)): 7.8% | patients with dose reductions due to TRAEs (all patients, six of 51): 11.8% | patients with treatment-associated serious AEs (all patients, six of 51): 11.8% | patients who permanently discontinued CYH33 due to DLTs (all patients, three of 51): 5.9% | maximum tolerated dose (MTD) (once daily, single agent, dose-escalation stage (mTPI-2)): 40 mg
